{"source": "patent US20130079364A1", "about": "“Peripheral Opioid Agonists and Peripheral Opioid Antagonists” (SIGNATURE THERAPEUTICS, INC., priority 2010, published 2013)", "key": {"[1]": {"target": "T1, human μ-opioid receptor (Homo sapiens, UniProt P35372)", "T1 construct": "expressed in transfected cells; host or cells: CHO (Chinese hamster ovary) cells", "T1 sequence (P35372 whole entry)": "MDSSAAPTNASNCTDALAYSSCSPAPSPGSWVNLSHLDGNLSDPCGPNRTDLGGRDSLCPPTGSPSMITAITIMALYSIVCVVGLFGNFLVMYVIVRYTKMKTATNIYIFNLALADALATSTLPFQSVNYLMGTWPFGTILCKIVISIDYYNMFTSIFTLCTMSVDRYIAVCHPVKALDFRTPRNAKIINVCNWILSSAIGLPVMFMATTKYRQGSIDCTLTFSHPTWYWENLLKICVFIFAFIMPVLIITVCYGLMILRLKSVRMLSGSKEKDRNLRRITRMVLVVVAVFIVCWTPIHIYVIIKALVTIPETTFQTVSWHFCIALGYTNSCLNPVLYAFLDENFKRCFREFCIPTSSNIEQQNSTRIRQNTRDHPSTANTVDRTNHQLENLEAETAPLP", "test": "cell-based", "conditions": "for EC50: CHO cells expressing human μ-opioid receptor, read-out: Agonist EC50", "description": "(§1) This Example measures the ability of certain compounds of the present disclosure to effect an agonist or antagonist response when exposed to recombinant human μ-opioid receptor expressed in CHO cells.\n(§2) The general procedure follows the protocol described by Wang, J.-B., Johnson, P. S., Perscio, A. M., Hawkins, A. L., Griffin, C. A. and Uhl, G. R. (1994). FEBS Lett., 338: 217-222. More specifically, the assays included each of the compounds indicated in Table 1 and recombinant Chinese hamster ovary (CHO) cells expressing the human μ-opioid receptor on their cell surfaces. The control reaction included 1 μM DAMGO. The reaction mixtures were incubated at 37° C. for 10 min, and the reaction product was cyclic AMP (cAMP). The samples were submitted to homogeneous time resolved fluorescence (HTRF®). EC50 values (concentration producing a half-maximal specific response) were determined by non-linear regression fit using the Hillplot software."}, "[2]": {"test": "Pharmacokinetics following PO administration to rats (plasma, HPLC/MS)", "conditions": "male, Sprague Dawley, rat, 20 mg/kg", "procedure": "(§3) At specified time points, blood samples were drawn, harvested for plasma via centrifugation at 5,400 rpm at 4° C. for 5 min, and 100 microliters (μl) plasma transferred from each sample into a fresh tube containing 2 μl of 50% formic acid. The tubes were vortexed for 5-10 seconds, immediately placed in dry ice and then stored in a −80° C. freezer until analysis by HPLC/MS.\nas §3, with “μl” for “microliters (μl)”\nas §3, with “μl” for “microliters (μl)”\nas §3, with “μl” for “microliters (μl)”"}, "[3]": {"system": "inflammatory pain", "test": "Carrageenan-induced inflammatory paw model (Randall Selitto test)", "format": "in vivo, Sprague-Dawley rats", "conditions": "200 mg/kg Compound AG-2 oral gavage three hours after carrageenan; FIG. 10", "procedure": "The carrageenan-induced inflammatory paw model (see, e.g., Bileviciute-Ljungar I et al, 2006, J Pharmacol Exp Ther 317, 220-227) was used to assess the ability of peripheral opioid agonist Compound AG-2 to reduce inflammatory pain, by measuring paw withdrawal latency in response to mechanical stimulation of the paw.\nSprague-Dawley rats, fasted for approximately 18 hours prior to compound administration, were used for this study. Rats were injected in the plantar surface of the right hindpaw with 100 ul of a 1% carrageenan solution formulated in water (carrageenan available from Spectrum Chemical Manufacturing Corporation, Gardena, Calif.) three hours prior to compound administration, in order to elicit maximum edema formation. The hindpaw withdrawal latency to mechanical stimulation for each paw was tested before compound administration for use as a pre-treatment baseline, and at specific time points after compound administration using the Randall Selitto test (instrument available from IITC Inc. Life Science, Woodland Hills, Calif.). Briefly, the hindpaw was pinched until the animal retracted its paw. The amount of force (in grams) required to elicit a withdrawal response was assessed. Two repeat measures were taken at each time point, and the averaged value from the inflamed paw was used to quantify the percentage of change from the pre-treatment baseline. […]"}, "[4]": {"conditions": "male, Sprague Dawley, rat, in vivo, iv, 10 mg/kg"}, "[5]": {"test": "Pharmacokinetics following IV administration to rats (plasma, HPLC/MS)", "conditions": "male, Sprague Dawley, rat"}, "[6]": {"test": "Plasma and cerebrospinal fluid penetration following IV administration to rats", "conditions": "for Compound conc. in CSF / Compound conc. in plasma / Plasma/CSF partitioning coefficient / concentration at 2 min: rats; for concentration at 2 min: male, Sprague Dawley, rat, in vivo, iv, 10 mg/kg, Compound conc. in CSF"}, "[7]": {"target": "T1, human μ-opioid receptor", "test": "In vitro human μ-opioid receptor antagonist cellular functional assay (cAMP, HTRF)", "format": "cell-based", "conditions": "for EC50: CHO cells expressing human μ-opioid receptor", "description": "as §1, §2"}, "[8]": {"system": "CNS opioid receptors", "test": "Rat tail flick latency assay, morphine induced analgesia", "format": "in vivo, Sprague Dawley rats", "conditions": "antagonist subcutaneously 70 min after 5 mg/kg morphine; Compound AN-1, AN-6 0.3 mg/kg, naltrexone 1.8 mg/kg; FIG. 8", "procedure": "A rat tail flick latency assay (see, e.g., Tejwani G et al., 2002, Anesth Analg 94, 1542-1546) was used to determine whether peripheral opioid antagonists of the embodiments were capable of effecting antagonist activity at opioid receptors in the central nervous system. In such an assay, the tails of rats are exposed to a noxious stimulus, such as heat, and tail withdrawal latency is measured. The latency (i.e., time between exposure and reaction) is an indication of the amount of pain experienced by the rat.\nIn this study, the tails of healthy male Sprague Dawley rats (5 per group) were painted with India ink (i.e., a 6-cm portion, starting at the tip). The rats were then placed in Broome Restrainers and allowed to acclimate for at least 15 min. At the conclusion of the acclimation period, baseline tail withdrawal latencies (baseline latency) were measured by exposing the rats to a focused light beam of 80 volts at a position 6.5 cm above the tail until the rats flicked their tail out of the path of the light beam. This step was repeated twice for each rat, in two spots, i.e., 2 cm and 4 cm from the tip of the tail. The responses were averaged and used as a baseline latency value for comparison to post-drug treatment latency values."}, "[9]": {"conditions": "IV 10 mg/kg of each compound, 2-min time point (Table 12)"}, "[10]": {"conditions": "IV 10 mg/kg Compound AN-1, 2-minute time point"}}, "note": "Read-outs that look alike come from different tables or passages of the source.", "data": [{"compound": "COc1ccc2c3c1O[C@H]1C(OC(=O)N(C)CCNC(=O)[C@@H](CCCNC(=N)N)NC(=O)CC(=O)O)=CC[C@@]4(O)[C@@H](C2)N(C)CC[C@]314", "note": "[Compound AG-2, N-(oxycodone-6-enol-carbonyl-methylamino)ethylamine-D-arginine-malonic acid]", "values": [{"measurement": "OC/Compound AG-2 relative potency", "setting": "[1]", "value": 10.9}, {"measurement": "EC50", "setting": "[1]; Table 1, Example 9, 37° C. 10 min", "value": 850, "unit": "nM"}, {"measurement": "Cmax", "setting": "[2]", "value": "46.1 ± 0.9", "unit": "ng/mL"}, {"measurement": "Tmax", "setting": "[2]", "value": "37.5 ± 15", "unit": "min"}, {"measurement": "increase in pain tolerance compared to the untreated rats", "setting": "[3]", "value": "approximately 50%"}, {"measurement": "Compound conc. in CSF", "setting": "[4]", "value": 22.8, "unit": "ng/mL"}, {"measurement": "Compound conc. in plasma", "setting": "[4]", "value": "28,600 ng/mL"}, {"measurement": "Plasma/CSF partitioning coefficient", "setting": "[4]", "value": "1,254"}, {"measurement": "Cmax", "setting": "[5]; 2 mg/kg", "value": 3410, "unit": "ng/mL"}]}, {"compound": "C=CCN1CC[C@]23c4c5ccc(O)c4O[C@H]2C(OC(=O)N(C)CCNC(=O)[C@@H](CCCNC(=N)N)NC(=O)CC(=O)O)=CC[C@@]3(O)C1C5", "note": "[Compound AN-4, N-(naloxone-6-enol-carbonyl-methylamino)ethylamine-D-arginine-malonic acid]", "values": [{"measurement": "Compound conc. in CSF", "setting": "[6]; [9]", "value": 101, "unit": "ng/mL"}, {"measurement": "Compound conc. in plasma", "setting": "[6]; [9]", "value": "49,200 ng/mL"}, {"measurement": "Plasma/CSF partitioning coefficient", "setting": "[6]; [9]", "value": 487}]}, {"compound": "CN(CCNC(=O)[C@@H](CCCNC(=N)N)NC(=O)CC(=O)O)C(=O)OC1=CC[C@@]2(O)[C@H]3Cc4ccc(O)c5c4[C@@]2(CCN3CC2CC2)[C@H]1O5", "note": "[Compound AN-1, N-(naltrexone-6-enol-carbonyl-methylamino)ethylamine-D-arginine-malonic acid]", "values": [{"measurement": "EC50", "setting": "[7]; Antagonist EC50, Table 1, Example 9, 37° C. 10 min", "value": 180, "unit": "nM"}, {"measurement": "NTX/Compound AN-1 relative potency", "setting": "[7]; EC50 at the human μ-opioid receptor, naltrexone to Compound AN-1", "value": 6.0}, {"measurement": "AUC", "setting": "[2]", "value": "139 ± 32", "unit": "ng·h/mL"}, {"measurement": "Cmax", "setting": "[2]", "value": "41 ± 13", "unit": "ng/mL"}, {"measurement": "Tmax", "setting": "[2]", "value": "45 ± 17.4", "unit": "min"}, {"measurement": "effect on morphine induced analgesia (% MPE, tail flick)", "setting": "[8]", "value": "no inhibition of analgesia"}, {"measurement": "Cmax", "setting": "[5]; 10 mg/kg", "value": 46300, "unit": "ng/mL"}, {"measurement": "relative plasma/CSF partitioning coefficient of Compound AN-1 to naltrexone", "setting": "[6]; 620/9.6", "value": "about 65"}, {"measurement": "Compound conc. in CSF", "setting": "[6]; [10]", "value": 74.7, "unit": "ng/mL"}, {"measurement": "Compound conc. in plasma", "setting": "[6]; [10]", "value": "46,300 ng/mL"}, {"measurement": "Plasma/CSF partitioning coefficient", "setting": "[6]; [10]", "value": 620}]}, {"compound": "CN(CCNC(=O)[C@@H](CCCCN)NC(=O)CC(=O)O)C(=O)OC1=CC[C@@]2(O)C3Cc4ccc(O)c5c4[C@@]2(CCN3CC2CC2)[C@H]1O5", "note": "[Compound AN-6, N-(naltrexone-6-enol-carbonyl-methylamino)ethylamine-D-lysine-malonic acid]", "values": [{"measurement": "effect on morphine induced analgesia (% MPE, tail flick)", "setting": "[8]", "value": "no inhibition of analgesia"}, {"measurement": "Compound conc. in CSF", "setting": "[6]; [9]", "value": 95.0, "unit": "ng/mL"}, {"measurement": "Compound conc. in plasma", "setting": "[6]; [9]", "value": "79,400 ng/mL"}, {"measurement": "Plasma/CSF partitioning coefficient", "setting": "[6]; [9]", "value": 836}]}, {"compound": "CN(CCNC(=O)[C@@H](CCCNC(=N)N)NC(=O)CC(=O)O)C(=O)OC1=CCC2C3Cc4ccc(O)c5c4[C@@]2(CCN3C)[C@H]1O5", "note": "(stereo partly drawn) [Compound AG-4, N-(hydromorphone-6-enol-carbonyl-methyl-amino)ethylamine-D-arginine-malonic acid]", "values": [{"measurement": "HM/Compound AG-4 relative potency", "setting": "[1]; EC50 at the human μ-opioid receptor, hydromorphone to Compound AG-4", "value": 16.1}, {"measurement": "EC50", "setting": "[1]; Table 15, Example 24", "value": 37, "unit": "nM"}]}, {"compound": "O=C1CC[C@@]2(O)[C@H]3Cc4ccc(O)c5c4[C@@]2(CCN3CC2CC2)[C@H]1O5", "note": "[Naltrexone, naltrexone, reference compound]", "values": [{"measurement": "effect on morphine induced analgesia (% MPE, tail flick)", "setting": "[8]", "value": "rapid inhibition of analgesia"}, {"measurement": "Compound conc. in plasma", "setting": "[4]", "value": 9.17, "unit": "ng/mL"}, {"measurement": "concentration at 2 min", "setting": "[6]; [10]", "value": 7.44, "unit": "ng/mL"}, {"measurement": "concentration at 2 min", "setting": "[6]; IV 10 mg/kg Compound AN-3, 2-minute time point", "value": 0.813, "unit": "ng/mL"}, {"measurement": "Compound conc. in plasma", "setting": "[6]; [10]", "value": 71.1, "unit": "ng/mL"}]}, {"compound": "CC(=O)N[C@H](CC(=O)O)C(=O)NCCN(C)C(=O)OC1=CC[C@@]2(O)C3Cc4ccc(O)c5c4[C@@]2(CCN3CC2CC2)[C@H]1O5", "note": "[Compound AN-7, N-(naltrexone-6-enol-carbonyl-methylamino)ethylamine-D-aspartic acid-acetate]", "values": [{"measurement": "EC50", "setting": "[7]; Antagonist EC50, Table 15, Example 24", "value": 300, "unit": "nM"}, {"measurement": "NTX/Compound AN-7 relative potency", "setting": "[7]; EC50 at the human μ-opioid receptor, naltrexone to Compound AN-7", "value": 8.6}, {"measurement": "Compound conc. in CSF", "setting": "[6]; [9]", "value": 462, "unit": "ng/mL"}, {"measurement": "Compound conc. in plasma", "setting": "[6]; [9]", "value": "76,600 ng/mL"}, {"measurement": "Plasma/CSF partitioning coefficient", "setting": "[6]; [9]", "value": 166}]}]}
